The values below come from PMC6009910, “Tertiary amine derivatives of chlorochalcone as acetylcholinesterase (AChE) and buthylcholinesterase (BuChE) inhibitors: the influence of chlorine, alkyl amine side chain and α,β-unsaturated ketone group” (Journal of Enzyme Inhibition and Medicinal Chemistry, 2016).

Several values for one entry are separate records, joined by “and”; a condition that tells them apart may be missing. Equal entries are not always repeated. Entries after “also recorded” stand apart in the source; their conditions may differ.

Data set [1] has as its target T1, AChE (Rattus norvegicus, UniProt P37136).
T1 construct: The brain and serum of Sprague–Dawley rat was used as the resource of AChE and BuChE, respectively; from tissue; host or cells: Sprague-Dawley rat brain
The experiment in a line: biochemical. The format is biochemical. The note with it: for IC50: rat brain AChE, means ± SD of three experiments; for Selectivity for AChE, IC50 (BuChE)/IC50 (AChE): ratio IC50 (BuChE)/IC50 (AChE). As to the method: (§1) AChE/BuChE activity assays were conducted by Ellman method with light modification. The brain and serum of Sprague–Dawley rat was used as the resource of AChE and BuChE, respectively. Each compound was dissolved in Tween 80 and diluted with water to various concentrations immediately before use. The reaction mixture containing 40 µL AChE/BuChE, 100 µL acetylthiocholine iodide/S-Butyrylthiocholine iodide, 2.76 mL Na2HPO4/NaH2PO4 buffer (pH 8.0, 0.1 mol/L), and 100 µL different concentrations of test compounds were incubated at 30 °C for 25 min. Then the reaction was terminated via adding 100 µL 20% sodium dodecyl sulfate (SDS), then 100 µL 10 mmol/L 5, 5'-Dithiobis-(2-nitrobenzoic acid) (DTNB) was added to generate the yellow anion 5-thio-2-nitro-benzoic acid. The absorbance of each assay mixture was measured at 412 nm by UV spectroscopy. The IC50 values were calculated by Bliss method and expressed as mean ± SD of the replicates.

Data set [2] addresses T2, BuChE (Rattus norvegicus, UniProt Q9JKC1).
T2 construct: The brain and serum of Sprague–Dawley rat was used as the resource of AChE and BuChE, respectively; from tissue; host or cells: Sprague-Dawley rat serum
Briefly: BuChE inhibition assay (Ellman method). The format is biochemical, Sprague–Dawley rat. As to the method:
as §1
(In general: Ellman's reagent forms a yellow product with free thiols.)

Data set [3] in a line: Log p measurement by shake flask method. The conditions noted are these: octanol / PBS (pH =7.4), triplicate. The format is physicochemical. The method, then: Log p, defined as the logarithm of octanol-water partition coefficient is an important parameter to evaluate the lipophilicify of compounds. It can be calculated by determining the concentration of compound in octanol phase and water phase until the partition equilibrium was completed. In present investigation, log p of compounds 4a∼4l was measured by the shake flask method with slight modification, and PBS (pH =7.4) was used as the water phase. The mobile phase was methanol: 0.1% triethylamine (TEA)/80:20 (v/v), at a flow rate of 1.0 mL.min^−1 through a C18 column ([…] ×4.6 mm, 5 µm) at 32 °C with detect wavelength 318 nm. Experiments were conducted in triplicate and log p values were calculated.

Data set [4] concerns the target T1, AChE. The experiment in a line: Kinetic studies of AChE inhibition (Lineweaver–Burk). The format is biochemical. The method, then: as §1, with “replicates. Rivastigmine was used as the control drug.” for “replicates.”
Kinetic experiment was conducted by a reported method with some modifications. Compound 4l was added into the assay solution and pre-incubated with the enzyme at 30 °C, followed by the addition of 100-µL acetylthiocholine iodide including five concentrations. The assay solution contained 100 µL compound 4l, 100 µL DTNB, 2.76 mL 0.1 mol/L Na2HPO4/NaH2PO4 buffer (pH 8.0). Kinetic profile of AChE was determined by UV spectrophotometer at 412 nm. Additionally, the blank control experiment was conducted with the vehicle to replace compound 4l solution.

T2 sequence (Q9JKC1 24-597): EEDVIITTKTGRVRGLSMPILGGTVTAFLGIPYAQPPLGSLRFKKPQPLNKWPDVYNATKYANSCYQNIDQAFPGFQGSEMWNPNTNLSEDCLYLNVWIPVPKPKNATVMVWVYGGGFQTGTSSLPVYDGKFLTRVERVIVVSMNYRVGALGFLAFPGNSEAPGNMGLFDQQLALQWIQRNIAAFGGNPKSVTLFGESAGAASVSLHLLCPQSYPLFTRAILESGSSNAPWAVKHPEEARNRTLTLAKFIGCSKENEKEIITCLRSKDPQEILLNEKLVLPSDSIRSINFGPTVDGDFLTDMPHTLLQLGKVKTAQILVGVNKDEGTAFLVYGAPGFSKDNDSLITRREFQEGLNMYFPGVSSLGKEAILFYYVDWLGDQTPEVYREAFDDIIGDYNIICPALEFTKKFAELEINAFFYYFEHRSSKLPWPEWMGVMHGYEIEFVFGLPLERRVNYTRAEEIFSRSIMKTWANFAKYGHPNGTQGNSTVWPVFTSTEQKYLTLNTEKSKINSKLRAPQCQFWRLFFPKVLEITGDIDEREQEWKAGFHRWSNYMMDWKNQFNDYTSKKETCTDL
T1 sequence (P37136 32-614): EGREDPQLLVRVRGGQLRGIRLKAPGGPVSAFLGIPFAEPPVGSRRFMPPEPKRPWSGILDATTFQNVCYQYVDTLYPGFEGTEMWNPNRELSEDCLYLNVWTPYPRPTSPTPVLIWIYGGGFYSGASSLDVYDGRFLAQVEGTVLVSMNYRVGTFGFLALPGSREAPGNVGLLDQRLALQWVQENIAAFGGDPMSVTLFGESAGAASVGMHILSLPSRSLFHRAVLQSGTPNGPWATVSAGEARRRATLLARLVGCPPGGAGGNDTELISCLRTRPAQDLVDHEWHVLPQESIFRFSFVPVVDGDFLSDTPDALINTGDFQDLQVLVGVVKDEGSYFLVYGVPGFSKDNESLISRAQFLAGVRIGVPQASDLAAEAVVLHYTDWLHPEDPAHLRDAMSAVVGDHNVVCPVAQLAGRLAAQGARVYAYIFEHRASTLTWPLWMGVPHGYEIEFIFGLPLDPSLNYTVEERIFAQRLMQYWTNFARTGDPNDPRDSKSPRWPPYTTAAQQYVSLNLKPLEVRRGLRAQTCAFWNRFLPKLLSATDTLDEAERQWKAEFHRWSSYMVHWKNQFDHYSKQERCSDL

With `O=C(/C=C/c1ccccc1Cl)c1ccc(O)cc1` [Compound 3a, 4'-Hydroxy-2-chlorochalcone], the half-maximal inhibitory concentration (IC50) in data set [1] and in data set [2] was more than 500 µM each time.

Consider `O=C(/C=C/c1cccc(Cl)c1)c1ccc(O)cc1` [Compound 3b, 4'-Hydroxy-3-chlorochalcone], for which the IC50 in data set [1] and in data set [2] was more than 500 µM in each case.

As to `O=C(/C=C/c1ccc(Cl)cc1)c1ccc(O)cc1` [Compound 3c, 4'-Hydroxy-4-chlorochalcone], the IC50 in data set [1] and in data set [2] was more than 500 µM in each case.

Regarding `CN(C)CCOc1ccc(C(=O)/C=C/c2ccccc2Cl)cc1` [Compound 4a, (E)-3–(2-chlorophenyl)-1–(4-(2-(dimethylamino)ethoxy)phenyl)prop-2-en-1-one], in data set [1], the IC50 – broadly, the concentration needed to halve the response being measured – came out at 2.11 ± 0.38 µM and the “Selectivity for AChE, IC50 (BuChE)/IC50 (AChE)” value (“Selectivity for AChE, IC50” for short) turned out to be 19.5. In addition, in data set [3], the logP (in general, the decadic logarithm of the partition coefficient of the neutral form, usually between octanol and water) is 1.75. Besides, inhibition in data set [2] was half-maximal at 41.1 ± 2.31 µM (IC50).

Turning to `CN(C)CCOc1ccc(C(=O)/C=C/c2cccc(Cl)c2)cc1` [Compound 4b, (E)-3–(3-chlorophenyl)-1–(4-(2-(dimethylamino)ethoxy)phenyl)prop-2-en-1-one], the figures for the IC50 in data set [1] and in data set [2] were 3.76 ± 0.26 µM and 32.1 ± 7.16 µM, respectively. Besides, the “Selectivity for AChE, IC50” value in data set [1] is 8.5. Besides, the logP in data set [3] was determined as 1.83.

`CN(C)CCOc1ccc(C(=O)/C=C/c2ccc(Cl)cc2)cc1` [Compound 4c, (E)-3–(4-chlorophenyl)-1–(4-(2-(dimethylamino)ethoxy)phenyl)prop-2-en-1-one]: in data set [1], the IC50 was found to be 1.55 ± 0.16 µM and the “Selectivity for AChE, IC50” value is reported as 28.1. This compound yielded a logP in data set [3] of 1.61. In data set [2], the IC50 was found to be 43.6 ± 6.94 µM.

As to `CCN(CC)CCOc1ccc(C(=O)/C=C/c2ccccc2Cl)cc1` [Compound 4d, (E)-3–(2-chlorophenyl)-1–(4-(2-(diethylamino)ethoxy)phenyl)prop-2-en-1-one], the IC50 in data set [1] was 5.42 ± 0.2 µM; in data set [2] it was 63.8 ± 9.21 µM. For the same compound, the “Selectivity for AChE, IC50” value in data set [1] is recorded as 11.8. In data set [3], this compound showed a logP of 1.63.

As to `CCN(CC)CCOc1ccc(C(=O)/C=C/c2cccc(Cl)c2)cc1` [Compound 4e, (E)-3–(3-chlorophenyl)-1–(4-(2-(diethylamino)ethoxy)phenyl)prop-2-en-1-one], the results for the IC50 in data set [1] and in data set [2] were 5.83 ± 0.42 µM and 80.2 ± 7.18 µM, respectively. The “Selectivity for AChE, IC50” value in data set [1] amounted to 13.8. Also, in data set [3], the logP came out at 1.62.

On to `CCN(CC)CCOc1ccc(C(=O)/C=C/c2ccc(Cl)cc2)cc1` [Compound 4f, (E)-3–(4-chlorophenyl)-1–(4-(2-(diethylamino)ethoxy)phenyl)prop-2-en-1-one], for which, in data set [1], the IC50 was found to be 3.78 ± 0.39 µM and the “Selectivity for AChE, IC50” value is 26.7. In data set [3], this compound had a logP of 1.69. In data set [2], this compound displayed an IC50 of 101 ± 17.2 µM.

With `O=C(/C=C/c1ccccc1Cl)c1ccc(OCCN2CCCCC2)cc1` [Compound 4g, (E)-3–(2-chlorophenyl)-1–(4-(2-(piperidin-1-yl)ethoxy)phenyl)prop-2-en-1-one], in data set [1], 1.8 ± 0.48 µM corresponded to half-maximal inhibition (IC50) and the “Selectivity for AChE, IC50” value worked out at 19.8. For the same compound, the logP in data set [3] came to 1.75. The midpoint of inhibition in data set [2], the IC50, lay at 35.6 ± 7.31 µM.

As to `O=C(/C=C/c1cccc(Cl)c1)c1ccc(OCCN2CCCCC2)cc1` [Compound 4h, (E)-3–(3-chlorophenyl)-1–(4-(2-(piperidin-1-yl)ethoxy)phenyl)prop-2-en-1-one], in data set [1], it took 1.31 ± 0.17 µM to reach half-maximal inhibition (IC50) and the “Selectivity for AChE, IC50” value is 18.7. The same compound gave a logP in data set [3] of 1.72. Also, the IC50 in data set [2] was 24.5 ± 6.14 µM.

On to `O=C(/C=C/c1ccc(Cl)cc1)c1ccc(OCCN2CCCCC2)cc1` [Compound 4i, (E)-3–(4-chlorophenyl)-1–(4-(2-(piperidin-1-yl)ethoxy)phenyl)prop-2-en-1-one], for which, in data set [1], the midpoint of inhibition, the IC50, lay at 0.91 ± 0.09 µM and the “Selectivity for AChE, IC50” value is listed as 125.5. This compound also displayed a logP in data set [3] of 1.79. In data set [2], this compound yielded an IC50 of 114 ± 26.1 µM.

As to `O=C(/C=C/c1ccccc1Cl)c1ccc(OCCN2CCCC2)cc1` [Compound 4j, (E)-3–(2-chlorophenyl)-1–(4-(2-(pyrrolidin-1-yl)ethoxy)phenyl)prop-2-en-1-one], in data set [1], the IC50 was 0.81 ± 0.03 µM and the “Selectivity for AChE, IC50” value was 39.6. The lipophilicity (logP) in data set [3] turned out to be 1.85. In addition, the midpoint of inhibition in data set [2], the IC50, lay at 32.1 ± 5.71 µM.

For `O=C(/C=C/c1cccc(Cl)c1)c1ccc(OCCN2CCCC2)cc1` [Compound 4k, (E)-3–(3-chlorophenyl)-1–(4-(2-(pyrrolidin-1-yl)ethoxy)phenyl)prop-2-en-1-one], in data set [1], 0.28 ± 0.05 µM corresponded to half-maximal inhibition (IC50) and the “Selectivity for AChE, IC50” value was 110.9. In addition, the logP in data set [3] was 1.81. In addition, in data set [2], half-maximal inhibition (IC50) was put at 31.1 ± 3.41 µM.

For the compound `O=C(/C=C/c1ccc(Cl)cc1)c1ccc(OCCN2CCCC2)cc1` [Compound 4l, (E)-3–(4-chlorophenyl)-1–(4-(2-(pyrrolidin-1-yl)ethoxy)phenyl)prop-2-en-1-one], the IC50 in data set [1] came out at 0.17 ± 0.06 µM; in data set [2], 113 ± 18.2 µM. Besides, in data set [1], the “Selectivity for AChE, IC50” value is 667 and 667.2. In addition, in data set [3], the logP was 1.83. Further, in data set [4] (AChE, mixed-type inhibition), the “noncompetitive constant (Ki’)” value turned out to be 2.95 µM. Also, the inhibition type entry in data set [4] (Lineweaver–Burk analysis, Km increased and Vmax decreased with concentration) is “mixed-type inhibition; also recorded: mixed-type inhibitor”. In data set [4] (Supplement Table 2), the “Ki’” value came to 2.95 µM. For the same compound, the Vmax was 0.0273 ΔAmin-1 in data set [4] (compound 4l at 0.22 µM), 0.0263 ΔAmin-1 in data set [4] (compound 4l at 0.43 µM) and 0.0230 ΔAmin-1 in data set [4] (compound 4l at […]). Also, the Ki (commonly the equilibrium dissociation constant of an inhibitor or competing ligand from its target) in data set [4] (read-out: competitive inhibition constant (Ki)) is 0.38 µM.

Consider `CC(=O)N1N=C(c2ccc(OCCN3CCCCC3)cc2)CC1c1ccc(Cl)cc1` (stereo not shown) [Compound 5a, 1–(5-(4-Chlorophenyl)-3–(4-(2-(piperidin-1-yl)ethoxy)phenyl)-4,5-dihydro-1H-pyrazol-1-yl) ethan-1-one], for which, in data set [1], the IC50 is 5.94 ± 0.27 µM and the “Selectivity for AChE, IC50” value came out at 16.4. This compound also displayed an IC50 in data set [2] of 97.6 ± 3.78 µM.

Take `CC(=O)N1N=C(c2ccc(OCCN3CCCC3)cc2)CC1c1ccccc1Cl` (stereo not shown) [Compound 5b, 1–(5-(2-Chlorophenyl)-3–(4-(2-(pyrrolidin-1-yl)ethoxy)phenyl)-4,5-dihydro-1H-pyrazol-1-yl) ethan-1-one]: the IC50 in data set [1] worked out at 6.31 ± 0.16 µM; in data set [2] it was 29.9 ± 1.25 µM. For the same compound, the “Selectivity for AChE, IC50” value in data set [1] worked out at 4.74.

With `CC(=O)N1N=C(c2ccc(OCCN3CCCC3)cc2)CC1c1cccc(Cl)c1` (stereo not shown) [Compound 5c, 1–(5-(3-Chlorophenyl)-3–(4-(2-(pyrrolidin-1-yl)ethoxy)phenyl)-4,5-dihydro-1H-pyrazol-1-yl)ethan-1-one], the figures for the IC50 in data set [1] and in data set [2] were 2.41 ± 0.34 µM and 27.6 ± 2.58 µM, respectively. Further, the “Selectivity for AChE, IC50” value in data set [1] is recorded as 11.5.

Turning to `CC(=O)N1N=C(c2ccc(OCCN3CCCC3)cc2)CC1c1ccc(Cl)cc1` (stereo not shown) [Compound 5d, 1–(5-(4-Chlorophenyl)-3–(4-(2-(pyrrolidin-1-yl)ethoxy)phenyl)-4,5-dihydro-1H-pyrazol-1-yl) ethan-1-one], in data set [1], the IC50 was 2.04 ± 0.26 µM and the “Selectivity for AChE, IC50” value is on record as 52.96. For the same compound, the IC50 in data set [2] was found to be 108 ± 5.56 µM.
